Measured values as given in patent US8133902B2, “Ammosamides as anticancer agents” (The Regents of the University of California, priority 2007, dated 2012).
pIC50: −log10 of the molar value. Where two headings read alike, the source gives them in different places.

What was measured:
Assay type in all cases: cell-based
HCT-116 colon carcinoma = experiment: in vitro cytotoxicity against HCT-116 colon carcinoma; settings: Homo sapiens
Excerpt: Compounds IA and IB are isolated in a pure form from a marine-derived actinomycete strain CNR698. More specifically, compound IA is obtained from the marine-derived actinomycete strain CNR698, and is the first natural product to contain a […] functionality. Compound IB is obtained from the marine-derived actinomycete strain CNR698. The actinomycete was obtained from a marine sediment. Briefly, the actinomycete, identified as a Streptomyces strain (CNR-698) was isolated from bottom sediments collected at a depth of 300 meters in the Bahamas Islands. […] Subsequent cytotoxicity-guided (HCT-116) fractionation by C18 flash chromatography and RP-HPLC led to the isolation of ammosamides A (compound IA) and B (compound IB) as dark blue and blue-purple, respectively (3 and 4 mg/L)
Accordingly, in some embodiments of the invention, compounds IA and IB are used for making pharmaceutical compositions comprising either or both of the two compounds and a pharmaceutically acceptable carrier. In addition, the pharmaceutical compositions can optionally comprise one or more additional anticancer agent(s).
Activity of probe 4 (FIG. 1) was compared to that of ammosamide A (1 on FIG. 1). […] Florescence microscopy was then used to examine the uptake of probe 4, which was concentrated within HeLa, HCT-116 and PC-3 cells within minutes (FIG. 2). The entire fluorescence from addition of 1 mL of 1 μM in […] appeared within the cell.

[1] = tested on: HeLa, HCT-116 and PC-3 cells; experiment: live cell fluorescence microscopy, retention and localization; settings: pretreatment with 1 mL DMEM containing 10 μM
Description: HeLa cells (ATCC CCL-2) were cultured in phenol red-free Dulbecco's modification of Eagle's medium (DMEM) with 4.5 g/L glucose, […] and 5% heat inactivated fetal calf serum (FCS) in glass-bottom dishes. The cells were synchronized using a double thymidine block. Phenol red, a common additive in DMEM, was not used during the culturing or experimentation. Fluorescent images were collected on a Nikon TE 2000 using irradiation with a mercury vapor lamp (Nikon), filtration through a dichroic filter set (FF409, Semrock) with an excitation at 377±50 nm, dichroic with >98% reflection at 344-404 nm and >98% transmission at 415-570 nm, and emission filter at 447±60 nm, focusing with an Oil Immersion Epiplan 60× objective (Zeiss), and image collection with an SPOT RT-KE color CCD Camera (Diagnostic Instruments Inc.).
The results of the study of the activity are discussed below with the reference to FIG. 2. […]
Live cell fluorescence microscopy was then conducted to detail the intracellular localization of probe 4. […]
After 12 hours of incubation, the blue fluorescence from probe 4 was vesiculated (FIG. 2d). […] In particular, the overlap of red fluorescence from the red lysosome stain, LysoTracker Red DND-99, and the blue fluorescence from probe 4 provided strong evidence in support of this observation (FIG. 2f).

HCT-116 cells = experiment: cell cycle effects by FACS analysis; settings: FIG. 3a-c, 50 μM
Description: The results of the study of the activity are discussed below with the reference to FIG. 3. […] Further, FIG. 3a illustrates cell cycle response for unsyncronized HCT-116 cells, FIG. 3b for HCT-116 cells synchronized and treated at G0 and incubated for 12 hours, and FIG. 3c, for HCT-116 cells synchronized and treated at S and incubated for 12 hours.
The effects of probe 4 on cell cycle were evaluated using FACS analysis.

[2] = HCT-116, read-out: cytotoxicity IC50 values
[3] = HCT-116, read-out: in vitro cytotoxicity IC50

Row | Structure (SMILES) | pIC50 (HCT-116 colon carcinoma; [2]) | pIC50 (HCT-116 colon carcinoma; [3]) | effect of pretreatment on uptake of probe 4 [1] | cell cycle data relative to probe 4 (HCT-116 cells)
1 | CN1C(=S)c2cc(C(N)=O)nc3c(N)c(Cl)c(N)c1c23 [Compound IA, ammosamide A] | > 6.00 | 6.49 | blocked the uptake of probe 4 | Comparable cell cycles data
2 | CN1C(=O)c2cc(C(N)=O)nc3c(N)c(Cl)c(N)c1c23 [Compound IB, ammosamide B] | > 6.00 | 6.49 | – | –
